This note sets out measurements from publication PMC10539439 (Pharmacological Reports, 2023).

The series can be described thus: Blood pressure, 24-h telemetric method, normotensive rats. Conditions: telemetry, 5 mg/kg b.w., first 15 or 15 and 30 min after 1st, 7th and 14th administration, vs control. The format is in vivo, rat. On the procedure:
The blood pressure of rats treated with the tested compound was measured for a 24 h period after ip treatment (5 mg/kg b.w.) with a special telemetric system Stellar (TSE-Systems, Germany).
Surgery: The operation was carried out over 30 min under sterile conditions. Rats were anaesthetized with ketamine and xylasine (intramuscular injection: 100 mg/kg and 10 mg/kg). Before surgery and for 7 days after, the animals were also treated with cefuroxime (20 mg/kg/day) via intramuscular injection and ketoprofen (5 mg/kg/day) via ip injection. […] The transmitter was sutured to the peritoneal cavity.
The rats were individually caged for 2 weeks to heal after surgical cut. The animals were then placed in pairs in cages to reduce their isolation stress. Blood pressure was measured: before ip administration of the compounds – time 0 min and 24 h thereafter.

In the case of `Cl.N=C(N)NN=Cc1c(Cl)cc(O)cc1Cl` [4-OH-Guanabenz, 2-[(2,6-Dichloro-4-hydroxyphenyl)methylene]hydrazinecarboximidamide Hydrochloride], the “effect on systolic and diastolic blood pressure (in words)” value is reported as “significantly higher”.
